Measurements taken from patent publication US10947182B1, “Cinnamyl alcohol cassic acid ester with antibacterial activity and a method of preparing the same” (SHAANXI UNIVERSITY OF SCIENCE AND TECHNOLOGY, priority 2020, dated 2021).

How the values were obtained:
[1] = system: multi-resistant Staphylococcus aureus 18-206; experiment: paper diffusion method drug sensitivity test; format: cell-based; settings: for Zone of inhibition: Multi-resistant Staphylococcus aureus 18-206, 30 μg/tablet paper disc (6.35 mm), LB plate, 37° C., 24 h; for inhibitory effect on drug-resistant bacteria (in words): multi-resistant Staphylococcus aureus 18-206, summary of Table 1
Protocol: (§1) The antimicrobial efficacy was determined by a paper diffusion method drug sensitivity test.
(§2) Experimental strains: Staphylococcus aureus (SAU), multi-resistant Staphylococcus aureus 18-206. The experimental strain was identified by Huashan Hospital Affiliated to Fudan University (Institute of Antibiotic of Fudan University).
(§3) Drug sensitive paper: The drug sensitive paper is a special drug sensitive paper with a diameter of 6.35 mm and a water absorption of 0.02 mL. The control drug was cefazolin (30 μg/tablet); the test drugs were cassic acid (30 μg/tablet), cinnamyl alcohol (30 μg/tablet) and cinnamyl alcohol cassic acid ester (30 μg/tablet).
(§4) Reagents: LB agar medium, LA broth medium, 0.5% DMSO solution.
(§5) The experimental strains were inoculated in non-selective medium and placed in air at 37° C. for 24 h. Pick a single colony that grows well and inoculate it into broth medium, incubate at 35° C.±2° C. for 6 hours, and use LA broth medium to calibrate the concentration of the bacterial solution to 0.5 Mie turbidimetric tube (1.5×10^8 CFU/mL). A bacterial suspension is obtained.
(§6) Weigh the LB dry powder, sterilize at 103.4 Kpa, 121.3° C. high-pressure steam for 15 min, and then put it in a 40° C.-50° C. water bath. Place a sterile empty plate (inner diameter 9 cm) on the surface of the ultra-clean table water table, shake and shake LB, and then pour the plate. The thickness of each plate is 3 mm to 4 mm. After the plate is cooled at room temperature, store it in the refrigerator at 2° C.-8° C. Use a sterile cotton swab to dip the bacterial solution, and evenly coat the surface of the LB plate 3 times. After inoculation of the bacterial suspension, the LB plate was dried at room temperature for 3 min to 5 min. Use sterile forceps to closely attach the antibacterial drug paper to the dish. Put the dish upside down and place it in a 37° C. incubator for 24 h. Observe the result and measure the diameter. Taking 0.5% DMSO solution as a negative control, the antibacterial activity is expressed by the diameter of the inhibition zone. The inhibition zone ≥17 mm, sensitive; the inhibition zone is 15 mm-16 mm, intermediary; the inhibition zone ≤14 mm, drug resistance.

[2] = system: Staphylococcus aureus (SAU); experiment: paper diffusion method drug sensitivity test; format: cell-based; settings: 30 μg/tablet paper disc (6.35 mm), LB plate, 37° C., 24 h
Protocol: as §1, §2, §3, §4, §5, §6

SMILES	Zone of inhibition [1]	inhibitory effect on drug-resistant bacteria (in words) [1]	Zone of inhibition [2]
OCC=Cc1ccccc1 [Cinnamyl alcohol]	0 mm	no inhibitory effect	17 mm
Cc1nnc(SCC2=C(C(=O)O)N3C(=O)[C@@H](NC(=O)Cn4cnnn4)[C@H]3SC2)s1 [Cefazolin]	22 mm	–	34 mm
O=C(OC/C=C/c1ccccc1)c1cc(O)c2c(c1)C(=O)c1cccc(O)c1C2=O [Cinnamyl alcohol cassic acid ester, Cinnamyl 4,5-dihydroxy-9,10-dioxo-9,10-dihydroanthracene-2-carboxylate]	15 mm	strong suppression effect	13 mm
O=C(O)c1cc(O)c2c(c1)C(=O)c1cccc(O)c1C2=O [Cassic acid]	7 mm	–	7 mm
